# Residues, ends and D or L forms follow the SMILES beside them.
# Tested on: pituitaries removed from 20 day old female rats
# Test: In vitro growth hormone release study (incubated rat pituitaries, GH radioimmunoassay)
# Format: cell-based
# Conditions: mean ± SEM, control -198± 85
# Procedure: Female rats of the CD-1 strain were housed in a constant temperature room at 24° C. with 14 hours light and 10 hours darkness. The rats were fed Purina brand rat chow ab libitum.
# All studies were started between 0800 and 1000 hours.
# Pituitaries were removed from 20 day old female rats. Two pituitaries were incubated at 36° C. in 1 ml of lactated Ringer's solution in 10 ml polytetrafluoroethylene beakers in a Dubnoff Shaker (90 cycles/min.). The pituitaries were incubated a total of 4 hours (P1, P2, I3, and I4). After two successive one hour preincubation periods (P1, P2), the peptide was added to the incubation medium hourly for 2 hours (I3, I4).
# This in vitro study was performed in triplicate and a standard radioimmunoassay of growth hormone present in the incubation medium was performed in duplicate. The hormonal activity was calculated as the difference (Δ) of growth hormone (GH) levels between I3, I4 and P2, i.e., (I3 -P2) and (I4 -P2). P values were calculated by Students' t test using six growth hormone values for each value recorded.
# The growth hormone radioimmunoassay reagents were distributed by the National Institute of Arthritis and […] (NIAMDD) program. The growth hormone values were calculated in terms of nanograms (ng) of a rat standard with a growth hormone potency of 0.61 units/mg.
structure (smiles),measurement,setting,value
NC(=O)[C@@H](Cc1ccccc1)NC(=O)[C@H](Cc1ccccc1)NC(=O)[C@@H](Cc1c[nH]c2ccccc12)NC(=O)CNC(=O)[C@@H](N)Cc1ccc(O)cc1 [H2 N-Tyr-Gly-D-Trp-Phe-D-Phe-CONH2] (HELM PEPTIDE1{Y.G.[dW].F.[dF].[am]}$$$$V2.0),"In vitro growth hormone release (ΔGH, I3/I4 minus P2)","1μg peptide, P value not significant",200 ± 167 ngΔGH/ml incubation medium
same,"In vitro growth hormone release (ΔGH, I3/I4 minus P2)","10μg peptide, P value <0.001",1384 ± 120 ngΔGH/ml incubation medium
same,"In vitro growth hormone release (ΔGH, I3/I4 minus P2)","100μg peptide, P value <0.001",1196 ± 194 ngΔGH/ml incubation medium
